Consider 34 sequences from the supplement of paper PMC11208160.
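Note: IS621 bridge recombinase in Escherichia coli cells against a fixed T5 target plasmid.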

The data set is described as follows: recombinant UMI read abundance after kanamycin selection (control-corrected) (log10(CPM+1)); higher = more efficient recombination; extreme values may be limits of the assay; sequences stand for … in AGTGCAGAGAAAATCGGCCAGTTTTCTCTGCCTGCAGTCCGCATGCCGTGGGACCCCTTGGGTTCTAACCTGTTGCCTAGATTTATGCAGCGGACTGCCTTTCTCCCAAAGTGATAAACCGG…AGGTTGGTTTCACT; site = the 11-nt donor. The method in brief:
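Under IPTG (0.07 mM) plus kanamycin, or without selection, Escherichia coli carrying a UMI-tagged donor and donor-binding-loop pair library and a target plasmid for the IS621 bridge recombinase were plated in two replicates. Recombinant UMIs were PCR-amplified across the donor–target junction and sequenced. Counts were converted to CPM, averaged over replicates, scaled by control-derived factors and reported as log10(CPM+1).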
Take “ATAGTAGCATGGACCGGTTTTCCCGGTAATCCGTATTTGCA (site ACAGTATCTTG)”: the “recombinant UMI read abundance (log10)” value was 0.993.
With “ATAGTAGCATGGACCGGTTTTCCCGGTAATCCGTATTTGCA (site ATAGTAGCTTG)”, the “recombinant UMI read abundance (log10)” value stood at 3.08.
In the case of “ATAGTATCATGGACCGGTTTTCCCGGTAATCCGTATTTGAC (site ATAGTATCTGT)”, the “recombinant UMI read abundance (log10)” value is 3.75.
With “ATAGTATCATGGACCGGTTTTCCCGGTAATCCGTATTTGAC (site CTAGTATCTGT)”, the “recombinant UMI read abundance (log10)” value turned out to be 2.94.
In the case of “ATAGTATCATGGACCGGTTTTCCCGGTAATCCGTATTTGAC (site GTAGTATCTGT)”, the “recombinant UMI read abundance (log10)” value stood at 2.49.
As to “ATAGTATCATGGACCGGTTTTCCCGGTAATCCGTATTTGAC (site TTAGTATCTGT)”, the “recombinant UMI read abundance (log10)” value came to 2.66.
With “ATAGTATCATGGACCGGTTTTCCCGGTAATCCGTATTTGCA (site AAAGTATCTTG)” the figure was 2.4.
“ATAGTATCATGGACCGGTTTTCCCGGTAATCCGTATTTGCA (site ACAGTATCTTG)”: the “recombinant UMI read abundance (log10)” value came to 2.34.
On to “ATAGTATCATGGACCGGTTTTCCCGGTAATCCGTATTTGCA (site AGAGTATCTTG)”, for which the “recombinant UMI read abundance (log10)” value amounted to 2.15.
For the sequence “ATAGTATCATGGACCGGTTTTCCCGGTAATCCGTATTTGCA (site ATAGTATCTTG)”, the “recombinant UMI read abundance (log10)” value stood at 3.37.
For “ATAGTATCATGGACCGGTTTTCCCGGTAATCCGTATTTGCC (site ATAGTATCTGG)” the value was 3.34; for “ATAGTATCATGGACCGGTTTTCCCGGTAATCCGTATTTGCC (site CTAGTATCTGT)”, 0.756.
As to “ATATACCCATGGACCGGTTTTCCCGGTAATCCGTATTTGCG (site ATATACCCTCG)”, the “recombinant UMI read abundance (log10)” value was 0.817.
For “ATATATGCATGGACCGGTTTTCCCGGTAATCCGTATTTGCT (site ATATATGCTAG)” the value was 2.99; for “ATATCACCATGGACCGGTTTTCCCGGTAATCCGTATTTGCT (site ATATCACCTAG)”, 0; for “ATATCATCATGGACCGGTTTTCCCGGTAATCCGTATTTGCG (site ATATCATCTCG)”, 2.11.
Consider “ATATCTACATGGACCGGTTTTCCCGGTAATCCGTATTTGTG (site AAATCTACTCA)”, for which the “recombinant UMI read abundance (log10)” value amounted to 0.252.
On to “ATATCTACATGGACCGGTTTTCCCGGTAATCCGTATTTGTG (site ACATCTACTCA)”, for which the “recombinant UMI read abundance (log10)” value is 0.246.
With “ATATCTACATGGACCGGTTTTCCCGGTAATCCGTATTTGTG (site AGATCTACTCA)”, the “recombinant UMI read abundance (log10)” value turned out to be 0.401.
Take “ATATCTACATGGACCGGTTTTCCCGGTAATCCGTATTTGTG (site ATATCTACTCA)”: the “recombinant UMI read abundance (log10)” value was found to be 0.895.
Regarding “ATATCTGCATGGACCGGTTTTCCCGGTAATCCGTATTTGGC (site ATATCTGCTGC)”, the “recombinant UMI read abundance (log10)” value was 0.5.
With “ATATGAACATGGACCGGTTTTCCCGGTAATCCGTATTTGTC (site ATATGAACTGA)” the figure was 2.77; with “ATATGTCCATGGACCGGTTTTCCCGGTAATCCGTATTTGTC (site ATATGTCCTGA)”, 0.623.
“ATATTGTCATGGACCGGTTTTCCCGGTAATCCGTATTTGTC (site ATATTGTCTGA)”: the “recombinant UMI read abundance (log10)” value is 3.25.
For “ATCAAGGCATGGACCGGTTTTCCCGGTAATCCGTATTTGCG (site ATCAAGGCTCG)”, the “recombinant UMI read abundance (log10)” value is 1.32.
As to “ATCAATACATGGACCGGTTTTCCCGGTAATCCGTATTTGAC (site ATCAATACTGT)”, the “recombinant UMI read abundance (log10)” value was 1.74.
As to “ATCAATACATGGACCGGTTTTCCCGGTAATCCGTATTTGAC (site ATCCATACTGT)”, the “recombinant UMI read abundance (log10)” value came out at 0.
As for “ATCAATACATGGACCGGTTTTCCCGGTAATCCGTATTTGAC (site ATCGATACTGT)”, the “recombinant UMI read abundance (log10)” value was determined as 2.2.
For “ATCAATACATGGACCGGTTTTCCCGGTAATCCGTATTTGAC (site ATCTATACTGT)” the value was 0; for “ATCAGAACATGGACCGGTTTTCCCGGTAATCCGTATTTGAT (site ATCAGAACTAT)”, 1.88.
For “ATCAGAGCATGGACCGGTTTTCCCGGTAATCCGTATTTGTC (site ATCAGAGCTGA)” the value was 1.82.
With “ATCATGGCATGGACCGGTTTTCCCGGTAATCCGTATTTGCA (site ATCATGGCTTG)” the figure was 2.21; with “ATCCAAGCATGGACCGGTTTTCCCGGTAATCCGTATTTGTG (site ATCCAAGCTCA)”, 1.51.
“ATCCAAGCATGGACCGGTTTTCCCGGTAATCCGTATTTGTG (site ATCCAAGCTCC)”: the “recombinant UMI read abundance (log10)” value is 0.0133.
